One compound from patent US7582767B2 (Biovitrum AB (publ.), priority 2005, dated 2009) can be followed below.

The target in one experiment is T1, 5-HT1a (Homo sapiens, UniProt P08908).
T1 sequence (P08908 1-422): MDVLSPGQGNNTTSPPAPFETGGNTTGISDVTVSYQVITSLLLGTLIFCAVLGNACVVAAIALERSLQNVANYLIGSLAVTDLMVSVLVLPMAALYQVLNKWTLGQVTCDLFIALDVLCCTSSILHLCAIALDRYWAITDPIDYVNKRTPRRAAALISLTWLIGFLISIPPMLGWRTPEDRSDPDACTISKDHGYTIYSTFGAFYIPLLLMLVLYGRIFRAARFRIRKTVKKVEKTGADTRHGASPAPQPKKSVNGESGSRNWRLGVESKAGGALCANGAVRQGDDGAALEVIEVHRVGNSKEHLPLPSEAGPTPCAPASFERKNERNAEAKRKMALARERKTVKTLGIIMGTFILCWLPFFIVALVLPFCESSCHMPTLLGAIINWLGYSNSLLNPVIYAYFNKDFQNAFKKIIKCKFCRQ
Nature of the experiment: Selectivity binding 5-HT1a.

The next experiment deals with body weight of DIO rats. Description: Effect on body weight, 28 days oral treatment of DIO rats. In kind it is in vivo, male Sprague-Dawley rats. The conditions noted are these: for Body weight Mean (g) Day 28: 28 days; for Basal Mean (%) Day 28: body weight % of basal; for Body weight gain Mean: day 28-initial; for Reduction % of vehicle / Reduction gram: versus vehicle at day 28. Here is the method: (c) Effect on Body Weight and on Food Intake
The corresponding solution was used as vehicle. The stability of the solutions were checked upon storage for 14 days. Solutions were formulated twice a week and stored in freezer. The solutions were analysed for the actual concentrations and found similar between the two occasions.
Hundred (100) male Sprague-Dawley rats were raised on high fat diet at Scanbur BK AB (Sollentuna, Sweden) which upon their arrival to the Biovitrum animal care facility weighed approximately 700 g (17 weeks old). The rats were conditioned and weighed for approximately three weeks after their arrival. The rats were singly stored in standard cages during constant room conditions (temp 22+/−1° C., humidity 40-60%, 12 h light/dark cycle, lights off at 10 am). The rats received the same high fat diet (45 kcal % fat, 4.7 kcal/g; D12451) as they received at Scanbur. The diets were purchased from Research Diets, Inc., New Jersey, USA, consisted of pellets and were stored under dry and cold conditions.
The high fat fed animals which gained the highest weight were selected. This population weighed 799±60 g. The selected forty-eight (48) rats were randomized and divided into […] treatment groups in order to obtain as homogeneous groups according to body weight as possible. Each treatment group consisted of 12 rats: Group 1—vehicle, Group 2—Example 1-5 mg/kg (11 μmol/kg), Group 3—Example 1-15 mg/kg (33 μmol/kg), Group 4—Example 1-30 mg/kg (66 μmol/kg). Further nine (9) rats were allocated for measurement of compound exposure and pharmacokinetics at each dose group in parallel for the seventh and the twentyninth days. The study was started by baseline measurements for five days in order to accustom the rats to the procedure and to the experimentalists. Test compound was administered orally once a day at 9-10 am in a volume of 2.5 ml/kg i.e.an average of 2 ml per (800 g) rat. Pellets and body were weighed each day in connection with the injections. Water bottles were weighed once a week. The weighings were done with a computer-assisted Mettler Toledo PR 5002 balance. All data were transferred into an Excel template.
The food and water intake, and body weight data are calculated in gram and % of basal and expressed as mean +/−SD and/or +/−SEM.
The data of body weight and food intake was statistically analysed by two-way univariate ANOVA with repeated measurements (treatment x time) followed by one-way ANOVA for comparison between treatment groups at selected time points. Clinical chemistry measurements were analysed by one-way ANOVA followed by Dunnetts t-test for test of significance of treatment groups versus vehicle control. A difference between two groups was considered significant if P<0.05. Statistical evaluation was performed using SPSS for Windows.

Where two headings read alike, the source gives them in different places.

Turning to `COc1ccc(C)cc1NS(=O)(=O)c1cc(OC2CCNCC2)c2occc2c1` [Example 1], the Ki on 5-HT1a (figure in parentheses after the bound, read-out: 5-HT1a Selectivity Binding (Ki), value in parentheses) is 1400 nM; at 5-HT1a (read-out: 5-HT1a Selectivity Binding (Ki)), greater than 1000 nM. Further, the “Body weight Mean (g) Day 28” value is recorded as 845 g with body weight of DIO rats (5 mg/kg p.o. once a day), 834 g in the experiment with body weight of DIO rats (15 mg/kg p.o. once a day) and 810 g in the experiment with body weight of DIO rats (30 mg/kg p.o. once a day). Further, the “Basal Mean (%) Day 28” value in the experiment on body weight of DIO rats (5 mg/kg p.o.) came to 103.5%; in the experiment on body weight of DIO rats (15 mg/kg p.o.), 103.7%; with body weight of DIO rats (30 mg/kg p.o.), 100.6%. In addition, the “Body weight gain Mean” value in the experiment with body weight of DIO rats (5 mg/kg p.o.) worked out at 29 g; with body weight of DIO rats (15 mg/kg p.o.) it was 30 g; with body weight of DIO rats (30 mg/kg p.o.) it was 4 g. The figures for the “Reduction % of vehicle” value in the experiment on body weight of DIO rats (5 mg/kg p.o.), in the experiment on body weight of DIO rats (15 mg/kg p.o.) and in the experiment with body weight of DIO rats (30 mg/kg p.o.) were 3.9%, 3.7% and 6.9%, respectively. Also, the Reduction gram is −31 gram with body weight of DIO rats (5 mg/kg p.o.), −30 gram in the experiment on body weight of DIO rats (15 mg/kg p.o.) and −57 gram in the experiment with body weight of DIO rats (30 mg/kg p.o.). Moreover, in the experiment with body weight of DIO rats (5, 15, 30 mg/kg p.o., four weeks, repeated ANOVA P<0.001), the “body weight throughout the whole treatment period” value is “decreased significantly”. For the same compound, in the experiment on body weight of DIO rats (third dose of the sentence, printed as 15 mg/kg), the “reduction in body weight” value stood at 6.9%.

As usually defined, the Ki is the equilibrium dissociation constant of an inhibitor or competing ligand from its target.
